Values joined by “and” are separate entries in the source; they are usually repeats but may differ in a detail not shown here. Equal entries are not always repeated. Inconclusive results and toxic doses are left out. How the source made its calls: active means survival T/C of 150% or more; inactive means T/C below 125% in these data.
System: CD2F1 mice, L1210 leukemia ip, survival T/C
Test: NCI In Vivo Anticancer Drug Screen. Data for tumor model L1210 Leukemia (intraperitoneal) in CD2F1 (CDF1) mice
Settings: higher = longer survival
Outline: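 Ratio T/C, where T is the treated-group value and C the vehicle-dosed control value, from mice implanted with a transplantable tumor.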

[1] = endpoint: mean survival time, dose: 100.0 mg/kg/injection, schedule: Q04DX003 (ip), vehicle: saline with Tween-80
[2] = endpoint: mean survival time, dose: 200.0 mg/kg/injection, schedule: Q04DX003 (ip), vehicle: saline with Tween-80
[3] = endpoint: mean survival time, dose: 400.0 mg/kg/injection, schedule: Q04DX003 (ip), vehicle: saline with Tween-80
[4] = endpoint: mean survival time, dose: 100.0 mg/kg/injection, schedule: Q01DX009 (ip), vehicle: saline with Tween-80
[5] = endpoint: mean survival time, dose: 200.0 mg/kg/injection, schedule: Q01DX009 (ip), vehicle: saline with Tween-80
[6] = endpoint: mean survival time, dose: 400.0 mg/kg/injection, schedule: Q01DX009 (ip), vehicle: saline with Tween-80
[7] = endpoint: mean survival time, dose: 100.0 mg/kg/injection, schedule: Q01DX001 (ip), vehicle: saline with Tween-80
[8] = endpoint: mean survival time, dose: 200.0 mg/kg/injection, schedule: Q01DX001 (ip), vehicle: saline with Tween-80

Measured: T/C

Nc1ncnc(N)c1NC(=O)c1cccc(OCc2ccccc2)c1
inactive: [1] 100 % of control | [2] 91 % of control | [3] 94 % of control

Cc1nc(C)c(CCO)c(=O)[nH]1
inactive: [1] 97 % of control | [2] 101 % of control | [3] 103 % of control

N#Cc1ccc2cn[nH]c2c1
inactive: [4] 98 % of control | [5] 96 % of control | [6] 92 % of control

CC(C)c1ccc2ccccc2c1
inactive: [1] 91 % of control | [2] 87 % of control | [3] 86 % of control

CCC(C)C1NC(=O)C(NC(=O)c2c3nc4c(C(=O)NC5C(=O)NC(C(C)CC)C(=O)N6CCCC6C(=O)N(C)CC(=O)N(C)C(C(C)C)C(=O)OC5C)cc(N)c(C)c4oc-3c(C)c(=O)c2N)C(C)OC(=O)C(C(C)C)N(C)C(=O)CN(C)C(=O)C2CCCN2C1=O (configuration not stated)
inactive: endpoint: mean survival time, dose: 25.0 micrograms/kg/injection, schedule: Q01DX009 (ip), vehicle: water 116 % of control | endpoint: mean survival time, dose: 50.0 micrograms/kg/injection, schedule: Q01DX009 (ip), vehicle: water 121 % of control

CCOC(=O)c1c(NC(C)=O)sc2c1CCCC2
inactive: [1] 97 % of control | [2] 106 % of control

Nc1c(Cl)ncnc1NNC(=O)OCc1ccccc1
inactive: endpoint: mean survival time, dose: 100.0 mg/kg/injection, schedule: Q01DX001 (ip), vehicle: carboxymethylcellulose (CMC) 104 % of control | endpoint: mean survival time, dose: 200.0 mg/kg/injection, schedule: Q01DX001 (ip), vehicle: carboxymethylcellulose (CMC) 98 % of control | endpoint: mean survival time, dose: 400.0 mg/kg/injection, schedule: Q01DX001 (ip), vehicle: carboxymethylcellulose (CMC) 103 % of control

Cc1cc(=O)[nH]cn1
inactive: endpoint: mean survival time, dose: 100.0 mg/kg/injection, schedule: Q04DX002 (ip), vehicle: saline 105 % of control | endpoint: mean survival time, dose: 200.0 mg/kg/injection, schedule: Q04DX002 (ip), vehicle: saline 105 % of control | endpoint: mean survival time, dose: 400.0 mg/kg/injection, schedule: Q04DX002 (ip), vehicle: saline 97 % of control

COc1ccc(N/C=C/C2=[N+](C)c3ccccc3C2(C)C)c(OC)c1
inactive: endpoint: mean survival time, dose: 50.0 mg/kg/injection, schedule: Q01DX009 (ip), vehicle: saline 103 % of control | endpoint: mean survival time, dose: 100.0 mg/kg/injection, schedule: Q01DX009 (ip), vehicle: saline 105 % of control | endpoint: mean survival time, dose: 100.0 mg/kg/injection, schedule: Q04DX003 (ip), vehicle: saline 89 % of control | endpoint: mean survival time, dose: 200.0 mg/kg/injection, schedule: Q01DX009 (ip), vehicle: saline 97 % of control | endpoint: mean survival time, dose: 200.0 mg/kg/injection, schedule: Q04DX003 (ip), vehicle: saline 89 % of control

Nc1ccc(Nc2ccccc2C(=O)O)cc1
inactive: endpoint: mean survival time, dose: 50.0 mg/kg/injection, schedule: Q01DX009 (ip), vehicle: saline with Tween-80 95 % of control | [4] 103 % of control | [1] 105 % of control | [2] 97 % of control

CC(O)CNc1nc(N)[nH]c(=O)c1[N+](=O)[O-] (configuration not stated)
inactive: [7] 94 % of control | [8] 89 % of control

CC(C)C1=CCC2C(=C1)CCC1C(C)(C(N)=O)CCCC21C (configuration not stated)
inactive: [1] 95 % of control | [2] 88 % of control | [3] 90 % of control

Cc1ccc(OC(=O)Nc2cc([N+](=O)[O-])ccc2[N+](=O)[O-])cc1
inactive: endpoint: mean survival time, dose: 100.0 mg/kg/injection, schedule: Q04DX002 (ip), vehicle: saline with Tween-80 100 % of control | endpoint: mean survival time, dose: 200.0 mg/kg/injection, schedule: Q04DX002 (ip), vehicle: saline with Tween-80 100 % of control | endpoint: mean survival time, dose: 400.0 mg/kg/injection, schedule: Q04DX002 (ip), vehicle: saline with Tween-80 92 % of control

CC(=O)NC1=CC(OC(C)=O)C(COC(C)=O)OC1n1cnc2c1c(=O)n(C)c(=O)n2C (configuration not stated)
inactive: endpoint: mean survival time, dose: 12.5 mg/kg/injection, schedule: Q01DX005 (ip), vehicle: distilled water + Tween-80 93 % of control | endpoint: mean survival time, dose: 25.0 mg/kg/injection, schedule: Q01DX005 (ip), vehicle: distilled water + Tween-80 88 % of control | endpoint: mean survival time, dose: 50.0 mg/kg/injection, schedule: Q01DX005 (ip), vehicle: distilled water + Tween-80 88 % of control | endpoint: mean survival time, dose: 200.0 mg/kg/injection, schedule: Q01DX005 (ip), vehicle: distilled water + Tween-80 88 % of control

COc1ccc(OC)c(NC(=O)Nc2cc(Cl)c(OC)cc2OC)c1
inactive: [4] 87 % of control | endpoint: mean survival time, dose: 178.0 mg/kg/injection, schedule: Q01DX009 (ip), vehicle: saline with Tween-80 97 % of control | [5] 103 % of control | endpoint: mean survival time, dose: 266.0 mg/kg/injection, schedule: Q01DX009 (ip), vehicle: saline with Tween-80 95 % of control | endpoint: mean survival time, dose: 600.0 mg/kg/injection, schedule: Q01DX009 (ip), vehicle: saline with Tween-80 95 % of control

O=S(=O)(O)O.[NH-]CC(=O)O.[NH-]CC(=O)O.[NH-]CC(=O)O.[NH-]CC(=O)O.[Pt+2].[Pt+2]
inactive: endpoint: mean survival time, dose: 3.13 mg/kg/injection, schedule: Q04DX003 (ip), vehicle: distilled water + Tween-80 101 % of control | endpoint: mean survival time, dose: 6.25 mg/kg/injection, schedule: Q04DX003 (ip), vehicle: distilled water + Tween-80 104 % of control | endpoint: mean survival time, dose: 12.5 mg/kg/injection, schedule: Q04DX003 (ip), vehicle: distilled water + Tween-80 97 % of control | endpoint: mean survival time, dose: 25.0 mg/kg/injection, schedule: Q04DX003 (ip), vehicle: distilled water + Tween-80 112 % of control | endpoint: mean survival time, dose: 50.0 mg/kg/injection, schedule: Q04DX003 (ip), vehicle: distilled water + Tween-80 98 % of control

O=[N+]([O-])c1cc(Cl)c(Cl)cc1[N+](=O)[O-]
inactive: [7] 90 % of control | [8] 90 % of control

CCCCCCCCCCCCCCCCSSCCCCCCCCCCCCCCCC
inactive: [1] 88 % of control | [2] 88 % of control | [3] 92 % of control

CCCCCCCCn1nnnc1N
inactive: endpoint: mean survival time, dose: 12.5 mg/kg/injection, schedule: Q01DX001 (ip), vehicle: Klucel (hydroxypropylcellulose) (HPC) 112 % of control | endpoint: mean survival time, dose: 25.0 mg/kg/injection, schedule: Q01DX001 (ip), vehicle: Klucel (hydroxypropylcellulose) (HPC) 97 % of control | endpoint: mean survival time, dose: 50.0 mg/kg/injection, schedule: Q01DX001 (ip), vehicle: Klucel (hydroxypropylcellulose) (HPC) 104 % of control

N#Cc1nc(N)nc2c1ncn2C1OC(CO)C(O)C1O (configuration not stated)
inactive: endpoint: median survival time, dose: 8.75 mg/kg/injection, schedule: Q01DX005 (ip), vehicle: distilled water + Tween-80 100 % of control | endpoint: median survival time, dose: 17.5 mg/kg/injection, schedule: Q01DX005 (ip), vehicle: distilled water + Tween-80 107 % of control | endpoint: median survival time, dose: 35.0 mg/kg/injection, schedule: Q01DX005 (ip), vehicle: distilled water + Tween-80 100 % of control | endpoint: median survival time, dose: 70.0 mg/kg/injection, schedule: Q01DX005 (ip), vehicle: distilled water + Tween-80 100 % of control | endpoint: median survival time, dose: 140.0 mg/kg/injection, schedule: Q01DX005 (ip), vehicle: distilled water + Tween-80 101 % of control

C1C[N-]CC[N-]CC[N-]CC[N-]1.[Cl][Rh][Cl]
inactive: endpoint: mean survival time, dose: 1.56 mg/kg/injection, schedule: Q01DX009 (ip), vehicle: saline 100 % of control | endpoint: mean survival time, dose: 3.13 mg/kg/injection, schedule: Q01DX009 (ip), vehicle: saline 102 % of control | endpoint: mean survival time, dose: 6.25 mg/kg/injection, schedule: Q01DX009 (ip), vehicle: saline 100 % of control | endpoint: mean survival time, dose: 12.5 mg/kg/injection, schedule: Q01DX009 (ip), vehicle: saline 98 % of control and 108 % of control

Cc1[nH]c2ccccc2c1C(C)(Cc1cc2ccccc2[nH]1)c1ccncc1 (configuration not stated)
inactive: [4] 91 % of control | [5] 100 % of control | [6] 91 % of control

CCCCCCCCCCCCOCCC(=O)O
inactive: endpoint: mean survival time, dose: 75.0 mg/kg/injection, schedule: Q04DX003 (ip), vehicle: saline 97 % of control | endpoint: mean survival time, dose: 150.0 mg/kg/injection, schedule: Q04DX003 (ip), vehicle: saline 103 % of control | endpoint: mean survival time, dose: 300.0 mg/kg/injection, schedule: Q04DX003 (ip), vehicle: saline 95 % of control

CCCCCCCC/C=C\CCCCCCCC(=O)NCCN1CCCCC1
inactive: endpoint: mean survival time, dose: 75.0 mg/kg/injection, schedule: Q01DX001 (ip), vehicle: saline 100 % of control | endpoint: mean survival time, dose: 150.0 mg/kg/injection, schedule: Q01DX001 (ip), vehicle: saline 96 % of control | endpoint: mean survival time, dose: 300.0 mg/kg/injection, schedule: Q01DX001 (ip), vehicle: saline 96 % of control

Cc1cc2ccccc2[n+](C)c1-c1ccccc1Cl (tested in a mixture with another compound)
inactive: endpoint: mean survival time, dose: 5.0 mg/kg/injection, schedule: Q01DX009 (ip), vehicle: saline 104 % of control | endpoint: mean survival time, dose: 5.0 mg/kg/injection, schedule: Q04DX003 (ip), vehicle: saline 101 % of control | endpoint: mean survival time, dose: 10.0 mg/kg/injection, schedule: Q01DX009 (ip), vehicle: saline 100 % of control | endpoint: mean survival time, dose: 10.0 mg/kg/injection, schedule: Q04DX003 (ip), vehicle: saline 101 % of control | endpoint: mean survival time, dose: 20.0 mg/kg/injection, schedule: Q04DX003 (ip), vehicle: saline 105 % of control

CC12CCC(C/C1=C\C#N)C(C)(C)O2 (configuration not stated)
inactive: endpoint: mean survival time, dose: 50.0 mg/kg/injection, schedule: Q01DX009 (ip), vehicle: Klucel (hydroxypropylcellulose) (HPC) 97 % of control | endpoint: mean survival time, dose: 100.0 mg/kg/injection, schedule: Q01DX009 (ip), vehicle: Klucel (hydroxypropylcellulose) (HPC) 94 % of control | endpoint: mean survival time, dose: 200.0 mg/kg/injection, schedule: Q01DX009 (ip), vehicle: Klucel (hydroxypropylcellulose) (HPC) 105 % of control
